According to patent US11753374B2, “Compounds for the treatment of acute and chronic kidney disease” (Southern Research Institute, priority 2020, dated 2023):

Test system: heme oxygenase-1 (HO-1)
Test: High throughput screen: HO-1 promoter/enhancer luciferase reporter (pHOGL3/4.5+220) in stable HEK293 cells
Format: cell-based
Details: Homo sapiens; for EC50: Table 1, evaluation of biaryl aminomaleimides, HO-1 induction; for Emax: Table 1, unit inferred, Emax as % of 5 μM hemin
Protocol: The generation of the pHOGL3/4.5+220 construct is described in Deshane, et al. (2010) “SpI regulates chromatin looping between an intronic enhancer and distal promoter of the human heme oxygenase-1 gene in renal cells” J Biol Chem 285(22): 16476-86. See also FIG. 1.
Briefly, BamHI sites were added to the 4.5-kb PCR product generated by long-range PCR from a bacterial artificial chromosome clone containing portions of chromosome 22 (accession no. Z82244), including the HO-1 gene. This fragment was cloned into the BglII restriction site of the multiple cloning region to make the parental clone (pHOGL3/4.5). The 220-bp intronic enhancer was amplified with SalI sites on either end and cloned into the SalI site of the vector to generate pHOGL3/4.5+220.
In order to generate cells that stably express luciferase expression vectors that lack a mammalian antibiotic selection cassette, HEK293 cells were co-transfected with either pHOGL3/4.5+220 (Deshane et al, 2010) or the Triple Mutant construct (Liby, Hock et al, 2005; Hock et al, 2007) and pcDNA3.1 Zeocin using Lipofectamine 2000. Cells were cultured in Zeocin (400 ug/ml; Invitrogen) for selection. Individual clones were sorted by flow cytometry and plated into a 96-well plate at a density of one cell per well. Clones were maintained and expanded in complete media (DMEM/10% FBS/1× antibiotic-antimycotic) supplemented with 100 ug/ml Zeocin, and incubated at 37° C. in 5% carbon dioxide. Incorporation of the Luciferase expression vectors was validated by assaying for luciferase.
A library of over 150,000 compounds, as well as a library of over 4,000 FDA approved compounds, were used in the HTS assay. […] This led to the identification of approximately 800 compounds that induce HO-1 and have desirable chemical structures. […] The In-Cell Western assay was optimized to screen for endogenous HO-1 in a high throughput platform, and results were validated by Western blot, real-time PCR, and enzyme activity assays. Additional RNA sequencing studies highlighted a role for the transcription factor Nrf2 and other targets in HO-1 induction by several small molecules.

Row | Structure (SMILES) | EC50 [µM] | Emax [%]
1 | N#Cc1cccc(N2C(=O)C=C(Nc3cc(F)c(O)c(F)c3)C2=O)c1 [Compound 66] | > 50 | –
2 | O=C1C=C(Nc2cc(F)c(O)c(F)c2)C(=O)N1C1CCCCC1 [Compound 67] | > 50 | 25.6

Further lines, with some results ahead:

Row | EC50 [µM] | Structure (SMILES) | Emax [%]
3 | > 50 | O=C1C=C(Nc2cc(F)c(O)c(F)c2)C(=O)N1C1CC1 [Compound 68] | –
4 | 16.7 | O=C1C=C(Nc2ccc(O)cc2)C(=O)N1c1cc(F)c(O)c(F)c1 [Compound 69] | 105
5 | > 50 | O=C1C=C(Nc2ccccc2)C(=O)N1c1cc(F)c(O)c(F)c1 [Compound 70] | –
